The values below come from patent US9005902B2, “Tuberculosis diagnostic test” (priority 1998, dated 2015).

The subject of assay [1] is ESAT-6 peptide-specific IFN-γ-secreting T cells from peripheral blood. It is filed as cell-based, human. The conditions noted are these: for % of TB patients responding to individual peptide: peptide 10 μg/ml, 3×10^5 PBMC/well, positive = at least 5 IFN-γ SFCs more than and at least twice negative control.
The next assay concerns HLA DR1. The assay can be described thus: Peptide binding to HLA DR1.
The next assay relates to HLA DR7. The assay can be described thus: Peptide binding to HLA DR7.

Regarding “EGKQSLTKLAAAWGG (listed as Mycobacterium tuberculosis) [ES7, 15-mer peptide from ESAT-6 of M. tuberculosis]”, in assay [1], the “% of TB patients responding to individual peptide” value (“% of TB patients responding” below) is on record as 15%. Turning to “MTEQQWNFAGIEAAA (listed as Mycobacterium tuberculosis) [ES1, 15-mer peptide from ESAT-6 of M. tuberculosis]”, the “% of TB patients responding” value in assay [1] is 57%. The “% of healthy contacts tested recognising the peptide” value in assay [1] (healthy contacts exposed to open pulmonary tuberculosis) stood at 68%. Further, the “Number of contacts testing positive” value in assay [1] (out of 22 contacts with prolonged exposure to smear positive index case, Heaf test grade 3 or 4) worked out at 15. Besides, the “Binding to HLA DR1” value in the assay on HLA DR1 was “binds”. In addition, in the assay on HLA DR7, the “Binding to HLA DR7” value was “binds”. Regarding NLARTISEAGQAMAS [ES15], the “% of TB patients responding” value in assay [1] worked out at 34%. Regarding NNALQNLARTISEAG [ES14], the “% of TB patients responding” value in assay [1] was 28%. The “Detection of ESAT-6-specific CD8 T cells” value in assay [1] (peptide contains CD8 epitopes) is on record as “detected”. Turning to “QKWDATATELNNALQ (listed as Mycobacterium tuberculosis) [ES12, 15-mer peptide from ESAT-6 of M. tuberculosis]”, the “% of TB patients responding” value in assay [1] is 25%.

For “SAIQGNVTSIHSLLD (listed as Mycobacterium tuberculosis) [ES4, 15-mer peptide from ESAT-6 of M. tuberculosis]”, the “% of TB patients responding” value in assay [1] stood at 23%. Same read-out and setting: in the case of WNFAGIEAAASAIQG [ES2] it was 40%. For the sequence YQGVQQKWDATATEL [ES11], the “% of TB patients responding” value in assay [1] is listed as 34%.
